Among the test systems are SK-MEL-28 melanoma; RPMI-8226 leukemia; K-562 leukemia; NCI-H460 lung; HCT-116 colon; LOX IMVI melanoma; SN12C renal; OVCAR-8 ovarian; 786-0 renal; HS 578T breast.
Holding throughout (experiment): inhibition of tumour cell growth, NCI panel, 48 h

Several values for one entry are separate records, joined by “and”; a condition that tells them apart may be missing. Equal entries are not always repeated.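 48-hour exposure; five concentrations; linearly interpolated endpoints. Abbreviation: GI50, concentration required for 50% inhibition of growth. TGI: concentration producing complete growth inhibition.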

In the case of `COc1cccc2cc(C(N)=O)c(=N)oc12`, the TGI in the experiment with SK-MEL-28 melanoma, in the experiment with RPMI-8226 leukemia, with K-562 leukemia, in the experiment with NCI-H460 lung, in the experiment with HCT-116 colon and with LOX IMVI melanoma was greater than 100 µM in each case. The TGI in the experiment on SN12C renal is greater than 100 µM; in the experiment on OVCAR-8 ovarian, greater than 100 µM; in the experiment with 786-0 renal, greater than 100 µM; in the experiment with HS 578T breast, 97.5 µM.

Regarding `C1COC(NC(C2CC2)C2CC2)=N1`, the TGI in the experiment with SK-MEL-28 melanoma, in the experiment with RPMI-8226 leukemia, with K-562 leukemia, in the experiment on NCI-H460 lung, in the experiment on HCT-116 colon and in the experiment on LOX IMVI melanoma was greater than 100 µM each time. Besides, the TGI in the experiment on OVCAR-8 ovarian, in the experiment with 786-0 renal and in the experiment with HS 578T breast was greater than 100 µM in each case.

Consider `COc1ccc2c3c1OC1C(=O)C=CC4(O)C(C2)NCC[C@@]314` (stereo partly specified), for which the TGI in the experiment on SK-MEL-28 melanoma is 22.7 µM; in the experiment with RPMI-8226 leukemia, 13.2 µM; in the experiment with K-562 leukemia, greater than 80.8 µM; in the experiment with NCI-H460 lung it was 13.2 µM; in the experiment with HCT-116 colon it was 6.32 µM; with LOX IMVI melanoma it was 5.15 µM. For the same compound, the TGI in the experiment on SN12C renal stood at 4.42 µM; in the experiment on OVCAR-8 ovarian it was 6.36 µM; in the experiment on 786-0 renal, 5.02 µM; with HS 578T breast, 6.39 µM.

With `Cc1nc2c(o1)C(=O)c1ccccc1/C2=N/c1ccccn1`, the TGI in the experiment on SK-MEL-28 melanoma is 32.8 µM; in the experiment with RPMI-8226 leukemia, greater than 100 µM; with K-562 leukemia, greater than 100 µM; with NCI-H460 lung it was 29.8 µM; with HCT-116 colon, 41.8 µM; in the experiment with LOX IMVI melanoma, 39.9 µM. Besides, the TGI with SN12C renal turned out to be 64.1 µM; in the experiment with OVCAR-8 ovarian, 31.1 µM; in the experiment on 786-0 renal, 58.7 µM; in the experiment on HS 578T breast, 41.1 µM.

With `CC(=O)OC1CC2CCC1(C)C2(C)C` (stereo unspecified), the TGI with SK-MEL-28 melanoma, in the experiment on RPMI-8226 leukemia, with K-562 leukemia, with NCI-H460 lung, with HCT-116 colon and in the experiment with LOX IMVI melanoma was greater than 100 µM in each case. Besides, the TGI with SN12C renal, in the experiment on OVCAR-8 ovarian, in the experiment on 786-0 renal and in the experiment with HS 578T breast was greater than 100 µM each time.

Consider `CN1CCC2(CC1)C(=O)N(N1CCCCCC1)C(=O)N2c1ccccc1`, for which the TGI in the experiment with SK-MEL-28 melanoma, in the experiment with RPMI-8226 leukemia, in the experiment on K-562 leukemia, with NCI-H460 lung, in the experiment with HCT-116 colon and in the experiment on LOX IMVI melanoma was greater than 100 µM throughout. Also, the TGI in the experiment with SN12C renal, with OVCAR-8 ovarian, with 786-0 renal and in the experiment with HS 578T breast was greater than 100 µM in each case.

As to `O=C1c2ccccc2CC12Cc1cc3c(cc1C2=O)CCC3` (stereo unspecified), the TGI with SK-MEL-28 melanoma, in the experiment with RPMI-8226 leukemia, with K-562 leukemia, in the experiment on NCI-H460 lung, in the experiment on HCT-116 colon and in the experiment on LOX IMVI melanoma was greater than 100 µM in each case. Further, the TGI in the experiment with OVCAR-8 ovarian, in the experiment on 786-0 renal and in the experiment with HS 578T breast was greater than 100 µM in each case.

On to `CC(=O)O[C@H]1C[C@]2(C)C(CCC3O[C@@]32C)[C@@]2(CC(c3ccoc3)OC2O)[C@@H]1C` (stereo partly specified), for which the TGI was greater than 100 µM in the experiment on SK-MEL-28 melanoma; 81.1 µM in the experiment on RPMI-8226 leukemia; greater than 100 µM in the experiment with K-562 leukemia; greater than 100 µM with NCI-H460 lung; greater than 100 µM in the experiment with HCT-116 colon; greater than 100 µM in the experiment on LOX IMVI melanoma. Moreover, the TGI in the experiment with SN12C renal, in the experiment on OVCAR-8 ovarian, in the experiment on 786-0 renal and in the experiment with HS 578T breast was greater than 100 µM in each case.

In the case of `O=C1NC2(CCCCC2)N=C2C(Cl)CCCC12Cl` (stereo unspecified), the TGI in the experiment with SK-MEL-28 melanoma, in the experiment with RPMI-8226 leukemia, with K-562 leukemia, with NCI-H460 lung, with LOX IMVI melanoma and with SN12C renal was greater than 100 µM each time. Moreover, the TGI in the experiment on OVCAR-8 ovarian, in the experiment with 786-0 renal and with HS 578T breast was greater than 100 µM in each case.

Take `Cc1cccc(Nc2cn(COCc3ccccc3)c(=O)[nH]c2=O)c1`: the TGI in the experiment on SK-MEL-28 melanoma, in the experiment with RPMI-8226 leukemia, with K-562 leukemia, with NCI-H460 lung, in the experiment with HCT-116 colon and in the experiment on LOX IMVI melanoma was greater than 100 µM in each case. Further, the TGI with SN12C renal, in the experiment on 786-0 renal and in the experiment with HS 578T breast was greater than 100 µM each time.

Regarding `CCP(=O)(CC)C(Cl)(Cl)C(O)C(C)(C)C` (stereo unspecified), the TGI in the experiment on SK-MEL-28 melanoma, in the experiment on RPMI-8226 leukemia, in the experiment with K-562 leukemia, with NCI-H460 lung, with HCT-116 colon and in the experiment with LOX IMVI melanoma was greater than 100 µM throughout. In addition, the TGI in the experiment on SN12C renal, in the experiment with OVCAR-8 ovarian and with HS 578T breast was greater than 100 µM in each case.

As to `CCCNC(=S)N/N=C/c1cccc(C)n1`, the TGI in the experiment on RPMI-8226 leukemia was greater than 100 µM; in the experiment on K-562 leukemia, 77.5 µM; in the experiment with HCT-116 colon, 29 µM; in the experiment with LOX IMVI melanoma, greater than 100 µM; with SN12C renal, greater than 100 µM; with OVCAR-8 ovarian, greater than 100 µM. Also, the TGI with 786-0 renal and with HS 578T breast was greater than 100 µM each time.

With `O=C1OCC(C#Cc2ccccc2)=C1Cl`, the GI50 in the experiment on SK-MEL-28 melanoma was 1.7 µM; with RPMI-8226 leukemia, 1.56 µM; in the experiment on K-562 leukemia, 1.86 µM; in the experiment on NCI-H460 lung, 7.59 µM; in the experiment with HCT-116 colon, 0.322 µM; in the experiment on LOX IMVI melanoma, 4.31 µM. The GI50 in the experiment on SN12C renal was 2.89 µM; in the experiment on OVCAR-8 ovarian, 3.45 µM; in the experiment on HS 578T breast it was 2.46 µM. Moreover, the TGI in the experiment with SK-MEL-28 melanoma is 5.16 µM; in the experiment on RPMI-8226 leukemia it was 4.61 µM; in the experiment on K-562 leukemia it was 14.6 µM; with NCI-H460 lung it was greater than 100 µM; with HCT-116 colon, 1.38 µM; with LOX IMVI melanoma it was 14.9 µM. Further, the TGI is 12.3 µM in the experiment with SN12C renal, greater than 100 µM with OVCAR-8 ovarian and 18 µM in the experiment on HS 578T breast.

Regarding `COC(=O)NCCc1[nH]nc2c1C(=O)C=C(Nc1ccccc1)C2=O`, the TGI is greater than 100 µM with RPMI-8226 leukemia; greater than 100 µM in the experiment with K-562 leukemia; greater than 100 µM in the experiment with NCI-H460 lung; 54.9 µM in the experiment with HCT-116 colon; 75.8 µM with LOX IMVI melanoma; greater than 100 µM with SN12C renal. Further, the TGI in the experiment on OVCAR-8 ovarian is 40.2 µM; with 786-0 renal it was greater than 100 µM; with HS 578T breast it was greater than 100 µM.

With `CC1CCCC2=C1C(c1ccc(Cl)cc1)n1c(s/c(=C\c3ccc(Cl)cc3)c1=O)=N2` (stereo unspecified), the TGI in the experiment with SK-MEL-28 melanoma, in the experiment with RPMI-8226 leukemia, with K-562 leukemia, in the experiment with HCT-116 colon, with LOX IMVI melanoma and in the experiment with SN12C renal was greater than 100 µM throughout. The TGI with OVCAR-8 ovarian, in the experiment with 786-0 renal and in the experiment on HS 578T breast was greater than 100 µM throughout.

Take `COc1cc(/C=C/C(C)=O)ccc1OP(=O)(O)O`: the TGI in the experiment on SK-MEL-28 melanoma, in the experiment with RPMI-8226 leukemia, in the experiment on NCI-H460 lung, in the experiment with HCT-116 colon, in the experiment on LOX IMVI melanoma and in the experiment on SN12C renal was greater than 100 µM each time. Further, the TGI in the experiment with OVCAR-8 ovarian, with 786-0 renal and in the experiment on HS 578T breast was greater than 100 µM each time.

Consider `COc1cc([C@@H]2c3cc4c(cc3[C@@H](NCCNCCO)[C@H]3COC(=O)[C@H]23)OCO4)cc(OC)c1O`, for which the TGI with SK-MEL-28 melanoma is 9.5 µM and 9.02 µM; with RPMI-8226 leukemia, 3.84 µM; in the experiment on K-562 leukemia, greater than 100 µM; in the experiment with NCI-H460 lung it was 4.49 µM and 3.1 µM; with HCT-116 colon it was 44 µM and 32.9 µM; with SN12C renal, 24.1 µM and 3.19 µM. Also, the TGI is > 22.4 µM and 20.8 µM in the experiment on OVCAR-8 ovarian; 3.02 µM and 3.48 µM in the experiment on 786-0 renal; 19.2 µM and 5.4 µM in the experiment on HS 578T breast. Moreover, the GI50 is 0.46 µM and 0.522 µM in the experiment with RPMI-8226 leukemia; 1.45 µM in the experiment with K-562 leukemia; 0.934 µM and 0.331 µM with SN12C renal.

For the compound `COc1cc(N=NN(C)C)c(C(C)c2c3cc(OC)c(OC)cc3cc[n+]2C)cc1OC` (stereo unspecified), the TGI in the experiment with RPMI-8226 leukemia was 70.4 µM; in the experiment with K-562 leukemia, greater than 100 µM; with NCI-H460 lung, greater than 100 µM; in the experiment on HCT-116 colon, greater than 100 µM; in the experiment with LOX IMVI melanoma it was greater than 100 µM; in the experiment on SN12C renal, greater than 100 µM. Also, the TGI in the experiment with OVCAR-8 ovarian, in the experiment on 786-0 renal and with HS 578T breast was greater than 100 µM each time.

As to `COC(=O)C1=Nc2c(C)nn(-c3ccccc3)c2N=C(c2ccc(C)cc2)C1`, the TGI in the experiment on SK-MEL-28 melanoma, in the experiment with RPMI-8226 leukemia, with K-562 leukemia, with HCT-116 colon, in the experiment with LOX IMVI melanoma and in the experiment with SN12C renal was greater than 10 µM in each case. The TGI in the experiment on OVCAR-8 ovarian, with 786-0 renal and in the experiment with HS 578T breast was greater than 10 µM in each case.

Regarding `CCc1n[nH]c(=O)n1N1C(=O)C2CC=CCC2C1=O` (stereo unspecified), the TGI in the experiment on RPMI-8226 leukemia, with K-562 leukemia, in the experiment with NCI-H460 lung, in the experiment with HCT-116 colon, with LOX IMVI melanoma and in the experiment with SN12C renal was greater than 100 µM throughout. The TGI in the experiment with OVCAR-8 ovarian, in the experiment with 786-0 renal and in the experiment with HS 578T breast was greater than 100 µM throughout.

`O=C(O)CSCC(=O)Nc1ccc2cccc3c2c1CC3`: the TGI in the experiment on SK-MEL-28 melanoma, in the experiment with RPMI-8226 leukemia, in the experiment on K-562 leukemia, in the experiment on HCT-116 colon, in the experiment on LOX IMVI melanoma and with SN12C renal was greater than 100 µM in each case. Moreover, the TGI in the experiment with OVCAR-8 ovarian, with 786-0 renal and in the experiment on HS 578T breast was greater than 100 µM throughout.
